Our source for the EC50 values is patent US12583861B2, “Derivatives of imidazo[4,5-d]pyridazine, their preparation and their therapeutic application” (SANOFI, priority 2021, dated 2026).

Common to all, as to assay type: cell-based
The test system of one assay is IFN-α2a. Put plainly: IFN-α2a cytokine activation in human PBMC (MSD assay). As to conditions: Homo sapiens, PBMC, 24 h. As for the experimental part:
(§1) The other below tests involving measuring the in vitro activity of some compounds of the disclosure on cytokines IFN-α2a, IL-6, IL29 and TNF-α were carried out using human PBMC (PBMCs).
(§2) The activity described below, with respect to TLR7, TLR8, IFN-α2a, IL-6, IL29 and TNF-α, is given by the half maximal effective concentration (EC50), which corresponds to the concentration required to obtain a 50% of the activation. The lower the EC50, the less the concentration of the compound is required to produce 50% of maximum activation and the higher the potency.
(§3) In Vitro Assay to Determine IFN-α2a, IL-6, IL29 and TNF-α Cytokine Activation:
(§4) Peripheral blood mononuclear cells were isolated by Ficoll density gradient centrifugation from peripheral blood samples obtained from healthy donors (EFS). Isolated PBMCs are washed twice with PBS and resuspended in RPMI-1640 medium supplement with 10% fetal bovine serum (FBS) at 5.10^5 cells/well in a 96-well plate. The cells were then incubated with the compounds to test at various doses (20 μM to 4.8.10-6 μM final) for 24 h at 37° C., 5% CO2. After 24 h treatment, the plates are centrifuged and the supernatant were collected and assayed for cytokines IFN-α2a, IL-6, IL29 and TNF-α using the Meso Scale Discovery (MSD) assay platform according to the manufacturer's instructions. Briefly, 25 μL of cell culture supernatants were incubated for 1 h at Room Temperature (RT) in custom Multi-Spot 96-well plates prior coated with capture antibodies. After washing, SULFO-TAG® labeled detection antibodies were added to each of the wells and incubated for 1 h RT before adding a read buffer.

The target in the next assay is T1, human TLR8 (Homo sapiens, UniProt Q9NR97).
T1 construct: host or cells: HEK293 (HEK-Blue hTLR8)
T1 sequence (Q9NR97 27-1041): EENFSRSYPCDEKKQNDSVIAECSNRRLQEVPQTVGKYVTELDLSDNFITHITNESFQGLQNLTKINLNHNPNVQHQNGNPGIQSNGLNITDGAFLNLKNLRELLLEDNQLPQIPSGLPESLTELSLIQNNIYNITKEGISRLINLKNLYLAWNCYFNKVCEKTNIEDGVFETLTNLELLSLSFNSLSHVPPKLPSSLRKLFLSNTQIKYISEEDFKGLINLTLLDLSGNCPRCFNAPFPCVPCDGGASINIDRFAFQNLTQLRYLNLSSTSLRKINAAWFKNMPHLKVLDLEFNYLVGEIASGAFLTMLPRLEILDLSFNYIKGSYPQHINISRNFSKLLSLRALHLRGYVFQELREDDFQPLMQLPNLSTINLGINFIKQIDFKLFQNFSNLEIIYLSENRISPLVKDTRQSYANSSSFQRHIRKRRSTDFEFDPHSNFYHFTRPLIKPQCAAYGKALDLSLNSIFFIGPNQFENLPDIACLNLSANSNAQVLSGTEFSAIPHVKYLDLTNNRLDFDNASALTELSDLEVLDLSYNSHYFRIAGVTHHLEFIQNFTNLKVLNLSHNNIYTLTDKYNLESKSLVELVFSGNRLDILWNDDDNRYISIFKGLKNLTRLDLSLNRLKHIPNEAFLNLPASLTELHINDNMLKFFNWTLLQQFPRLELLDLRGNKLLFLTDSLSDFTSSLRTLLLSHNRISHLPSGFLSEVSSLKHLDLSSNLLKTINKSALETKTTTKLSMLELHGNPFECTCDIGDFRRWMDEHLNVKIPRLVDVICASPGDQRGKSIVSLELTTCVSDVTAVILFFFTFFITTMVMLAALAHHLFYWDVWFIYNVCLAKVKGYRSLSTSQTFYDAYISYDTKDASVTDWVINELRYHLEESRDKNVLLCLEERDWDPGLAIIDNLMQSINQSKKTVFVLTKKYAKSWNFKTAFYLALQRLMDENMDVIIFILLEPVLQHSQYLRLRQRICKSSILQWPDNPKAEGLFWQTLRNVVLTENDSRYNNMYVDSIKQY
Put plainly: HEK-Blue hTLR8 reporter cell assay (SEAP, NF-kB/AP-1) for stimulation of human TLR8. As to conditions: HEK-Blue hTLR8 cells, 24 h incubation, SEAP readout; read-out: TLR8_EC50. A digest of the protocol: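 Stimulation is quantified as secreted alkaline phosphatase in supernatant using QUANTI-Blue™ substrate. Reporter HEK293 line co-transfected with hTLR8 and SEAP under an IFN-β minimal promoter with five NF-κB/AP-1 sites; 3.10E4 cells/well, 18 to 24 h pre-culture at 37° C. before compounds.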

Another assay concerns IL-6. Put plainly: IL-6 cytokine activation in human PBMC (MSD assay). As to conditions: Homo sapiens, PBMC, 24 h, read-out: IL6 EC50. On the procedure: as §1, §2, §3, §4

For `CCCCc1nc2c(N)nnc(N3CCC(c4ccccc4)C3)c2n1C` (stereo not drawn) [Compound 89, 2-butyl-1-methyl-7-(3-phenylpyrrolidin-1-yl)-1H-imidazo[4,5-d]pyridazin-4-amine], the EC50 in the assay with IFN-α2a was 213 nM; at human TLR8, 7560 nM; with IL-6, 466 nM.
